Experimental data: BindingDB's records for patent US12503453 (Dana-Farber Cancer Institute, 2025)

Molecular target: Ubiquitin carboxyl-terminal hydrolase 7 (Homo sapiens, UniProt Q93009)
Assay: Ub-AMC Enzymatic and Kinetic Assays
Procedure: Full length USP7 was tested for its activity in Ubiquitin-AMC assay in presence or absence of inhibitors. USP7 (5 nM) was pre-incubated for 6 hours at room temperature with different concentrations of inhibitors or DMSO as a control in 50 mM HEPES pH 7.5, 0.5 mM EDTA, 11 μM ovalbumin, and 5 mM DTT. Ubiquitin-AMC (Boston Biochem) was then added to a final concentration of 500 nM. The initial rate of the reaction was measured by collecting fluorescence data at one minute intervals over 30-minute period using a Clariostar fluorescence plate reader at excitation and emission wavelength of 345 and 445 nm respectively. The calculated initial rate values were plotted against inhibitor concentrations to determine IC50s. All the experimental data were plotted using Prism GraphPad. All assays for each compound were performed at least twice for each compound.

Sequence of Ubiquitin carboxyl-terminal hydrolase 7 (Q93009 whole entry): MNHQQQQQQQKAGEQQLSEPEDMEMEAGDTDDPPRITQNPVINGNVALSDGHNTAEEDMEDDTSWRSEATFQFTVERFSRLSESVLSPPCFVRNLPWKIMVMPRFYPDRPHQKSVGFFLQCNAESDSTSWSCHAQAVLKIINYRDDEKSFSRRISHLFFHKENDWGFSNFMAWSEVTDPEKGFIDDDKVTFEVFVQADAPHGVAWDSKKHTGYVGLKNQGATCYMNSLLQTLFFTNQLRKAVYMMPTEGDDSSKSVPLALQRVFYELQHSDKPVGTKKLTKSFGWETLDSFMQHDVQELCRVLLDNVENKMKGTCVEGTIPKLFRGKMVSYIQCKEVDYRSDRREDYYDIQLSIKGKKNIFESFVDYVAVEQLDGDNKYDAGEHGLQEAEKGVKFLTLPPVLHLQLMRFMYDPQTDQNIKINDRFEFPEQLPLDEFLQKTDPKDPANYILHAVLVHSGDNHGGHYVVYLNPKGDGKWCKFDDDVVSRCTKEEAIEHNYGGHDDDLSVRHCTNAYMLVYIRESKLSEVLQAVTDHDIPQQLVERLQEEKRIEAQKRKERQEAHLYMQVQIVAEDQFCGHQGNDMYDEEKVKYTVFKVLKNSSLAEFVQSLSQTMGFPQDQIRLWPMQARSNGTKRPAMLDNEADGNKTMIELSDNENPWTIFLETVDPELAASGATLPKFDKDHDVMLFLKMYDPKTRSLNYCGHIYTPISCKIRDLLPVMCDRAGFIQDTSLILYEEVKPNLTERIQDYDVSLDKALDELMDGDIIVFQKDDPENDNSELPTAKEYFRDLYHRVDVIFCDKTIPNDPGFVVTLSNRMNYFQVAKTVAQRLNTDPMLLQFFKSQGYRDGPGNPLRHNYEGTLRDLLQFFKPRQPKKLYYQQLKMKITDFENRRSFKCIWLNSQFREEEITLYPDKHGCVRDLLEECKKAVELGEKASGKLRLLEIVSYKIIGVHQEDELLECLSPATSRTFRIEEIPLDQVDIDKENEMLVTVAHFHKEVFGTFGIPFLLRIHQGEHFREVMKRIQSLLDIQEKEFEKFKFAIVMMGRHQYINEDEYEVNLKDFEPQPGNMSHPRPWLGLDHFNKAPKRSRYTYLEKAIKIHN

- IC50: > 1000 nM
Structure (SMILES): CN1CCN(CCC(=O)Nc2ccc3c(=O)n(CC4(O)CCN(C(=O)C(CCCNC(=O)C5CCN(C#N)C5)Cc5ccccc5)CC4)cnc3c2)CC1 (stereo unspecified) [US12503453, Compound Table1.19]
